Assay results from patent publication US5849494A, “Methods for sensitive detection of reverse transcriptase” (priority 1996, dated 1998).

Legend:
[1] = biological target: RT of group M viruses (HIV-1 M:B_HXB2R, UniProt P04585); conditions: nevirapine at 100 μM; 21 group M reference isolates of A through F subtypes; culture supernatants
Experimental: (§1) To measure the sensitivity of group M and group O viruses to nevirapine (Boehringer Mannheim), the Amp-RT assay as described herein was used to measure the enzymatic activity of RT of these viruses in the presence or absence of the drug. Ten microliters of culture supernatants were added to 40 μl of RT buffer containing 10 ng of RNA template, 10 units of Rnasin (Promega, Wis.), 0.06% NP-40, 100 ng of the antisense primer EMCR2 (SEQ ID NO:2), 0.8 mM EGTA, 2 mM dithiothreitol, 50 mM Tris-HCl, 10 mM MgCl2 and 200 μM of each dNTP with or without 100 μM of nevirapine. The reaction was incubated at 37° C. for one hour and heated at 95° C. for ten minutes. The products of the RT reaction were PCR amplified for 35 cycles at 95° C. for one minute, 55° C. for one minute and 72° C. for one minute after the addition of 50 μl of PCR buffer containing 2.5 units of Taq polymerase, 100 ng of sense primer EMCF1': 5'[…]3' (SEQ ID NO:10). Twenty microliters of the reaction product was electrophoresed in 1.8% agarose gels and Southern blot hybridized to ^32 P-end labeled internal probe EMCP1 (SEQ ID NO:3). For qualitative detection, blots were exposed on autoradiographic film for 12-16 hours. For quantitative detection, blots were exposed for 3-6 hours and their radioactivities were read and measured by a Phosphor Imager (Model # 400E, Molecular Dynamics, Inc., CA). […]

[2] = biological target: RT in group M sera (HIV-1 M:B_HXB2R, UniProt P04585); conditions: 10 group M-infected persons; unprocessed 2 μl serum samples
Experimental: (§2) Plasma samples from 55 HIV-1 infected persons, ten seroconversion panels and 100 uninfected controls were studied. Two micoliter volumes of unprocessed plasma were tested in duplicate by the Amp-RT protocol as described above. The viral load was determined from a standard curve generated by known numbers of recombinant HIV-1 RT molecules and was expressed as equivalents of recombinant RT (rRT) molecules/ml. For comparison, RNA virus loads were also determined by the NASBA commercial assay (Organon).
(§3) To measure the sensitivity of group M and group O viruses to nevirapine (Boehringer Mannheim), the Amp-RT assay as described herein was used to measure the enzymatic activity of RT of these viruses in the presence or absence of the drug. Ten microliters of culture supernatants were added to 40 μl of RT buffer containing 10 ng of RNA template, 10 units of Rnasin (Promega, Wis.), 0.06% NP-40, 100 ng of the antisense primer EMCR2 (SEQ ID NO:2), 0.8 mM EGTA, 2 mM dithiothreitol, 50 mM Tris-HCl, 10 mM MgCl2 and 200 μM of each dNTP with or without 100 μM of nevirapine. […] For quantitative detection, blots were exposed for 3-6 hours and their radioactivities were read and measured by a Phosphor Imager (Model # 400E, Molecular Dynamics, Inc., CA). […]
(§4) Applicability to serum screening was evaluated in 10 group O-infected and 10 group M-infected persons.

[3] = biological target: T1, RT of group O reference isolate MVP5180 (Human immunodeficiency virus type 1 group O, UniProt Q79666); test: Amp-RT assay of RT activity of HIV-1 group O isolate with or without nevirapine; type: biochemical; conditions: nevirapine at 100 μM, culture supernatant
T1 construct: measure the enzymatic activity of RT of these viruses
Experimental: as §1

[4] = biological target: T2, RT in group O sera (HIV-1 O_MVP5180, UniProt Q79666); test: Direct Amp-RT assay of sera from group O-infected persons with or without nevirapine; type: biochemical, HIV-1 group O; conditions: 10 group O-infected persons; unprocessed 2 μl serum samples
T2 construct: Amp-RT with EMCV RNA template
Experimental: as §2, §3, §4

Cc1ccnc2c1NC(=O)c1cccnc1N2C1CC1 [nevirapine]
Effect on Amp-RT activity of group M reference isolates [1]: inhibit | Amp-RT result of group M sera with nevirapine [2]: positive only in the absence of nevirapine | Sensitivity of group O reference isolate to nevirapine (Amp-RT) [3]: resistant | Amp-RT result of group O sera with nevirapine [4]: Amp-RT positive in the presence and absence of nevirapine
